Results from patent US8710050B2, “Di and tri- substituted oxathiazine derivatives, method for the production, method for the production thereof, use thereof as medicine and drug containing said derivatives and use thereof” (Sanofi, priority 2011, dated 2014).

What follows are compounds tested against human 11β-HSD1 microsome fraction (Homo sapiens, UniProt P28845) (assay: Enzymatic 11beta-HSD1 test (SPA-based detection)). Conditions: [1,2-3H]-cortisone substrate, 0.25 mM NADPH, 37° C., 1 hour; read-out: IC50 (nM), Biological activity in nanomolar.
human 11β-HSD1 microsome fraction, sequence (P28845 whole entry): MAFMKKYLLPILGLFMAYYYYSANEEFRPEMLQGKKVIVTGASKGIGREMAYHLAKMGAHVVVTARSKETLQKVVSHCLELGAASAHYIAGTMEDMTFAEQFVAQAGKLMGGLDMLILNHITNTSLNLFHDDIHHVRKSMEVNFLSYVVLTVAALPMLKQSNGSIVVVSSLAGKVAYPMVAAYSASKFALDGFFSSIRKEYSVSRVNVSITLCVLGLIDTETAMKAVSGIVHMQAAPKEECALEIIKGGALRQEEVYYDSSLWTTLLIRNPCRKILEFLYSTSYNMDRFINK
Format: biochemical
Protocol: Enzymatic 11beta-HSD1 Test:
To measure the activity of the compounds, an SPA-based detection method (Solly et al. 2005) was employed. First of all, 20 μl of the human 11β-HSD1 microsome fraction (0.2 μg of protein), prepared in 50 mM HEPES, 0.1% BSA (w/v), were applied to a plate with 384 wells. The test compounds (0.09 μl) were applied to the assay plate in 100% DMSO. The reaction was started by addition of 20 μl of [1,2-^3H]-cortisone (0.1 μCi/[…]) in assay buffer comprising 25 mM HEPES, 100 mM KCl, 5 mM NaCl, 2 mM MgCl2 and 0.25 mM NADPH. The plate was agitated at 37° C. for 1 hour. At the same time, a stop solution comprising 20 mg/ml SPA-PVT beads, 1.6 mg/ml monoclonal cortisol antibody and 0.01 mM SSR110887 (inhibitor from the Biovitrium patent) in 50 mM HEPES, 1 M NaCl and 1 M KCl was stirred at room temperature. To stop the reaction, 25 μl of the stop solution were added to each well. The plate was agitated gently at room temperature for 1 further hour and then centrifuged at 500 gav for 1 min, in order that the SPA beads could settle out. The plate was then read in a Wallac-1450-Microbeta unit with a standard SPA program (counting time 1 min/well). The comparative compound was glycyrrhetinic acid.
Protein and radioactive substrate were dispensed with a Biomek FX unit (Beckman Coulter) for handling liquids. The test compounds were added with a Cybi-Well equipped with a 90 nl pin tool (CyBio).
Lit.: Solly S, Mundt S S, Zokian H J, Juy-Fang Ding G, Hermanowski-Vosatka A, Strulovici B and Zheng W. High-throughput screening of 11β-Hydroxysteroid dehydrogenase type 1 in scintillation proximity format. Assay Drug Dev Technol 2005; 3:377-384.
For `O=S1(=O)CC2(CCC2)OC(NC2CCCCC2)=N1` [Example 2, Cyclohexyl-(8,8-dioxo-5-oxa-8lambda6-thia-7-azaspiro[3.5]non-6-en-6-yl)amine], the IC50 was 399 nM. Work on `O=S1(=O)CC2(CCCCC2)OC(NC2CCCCC2)=N1` [Example 4, Cyclohexyl-(4,4-dioxo-1-oxa-4lambda6-thia-3-azaspiro[5.5]undec-2-en-2-yl)amine] yielded an IC50 of 300 nM. For `O=S1(=O)CC2(CCC2)OC(N[C@@H](CCO)c2ccccc2)=N1` [Example 6, (S)-3-(8,8-Dioxo-5-oxa-8lambda6-thia-7-azaspiro[3.5]non-6-en-6-ylamino)-3-phenyl-propan-1-ol], the IC50 was 128 nM. In the case of `CC1C(C)(C)OC(NC2CCCCC2)=NS1(=O)=O` (centres unmarked) [Example 1, Cyclohexyl-(5,6,6-trimethyl-4,4-dioxo-5,6-dihydro-4H-4lambda6-[1,4,3]oxathiazin-2-yl) amine], the IC50 is reported as 139 nM. `O=S1(=O)CC2(CCCC2)OC(N[C@@H](CCO)c2ccccc2)=N1` [Example 7, (S)-3-(9,9-Dioxo-6-oxa-9lambda6-thia-8-aza-spiro[4.5]dec-7-en-7-ylamino)-3-phenyl-propan-1-ol] showed an IC50 of 113 nM. Compound `CC1(C)CS(=O)(=O)N=C(N[C@@H](CCO)c2ccccc2)O1` [Example 5, (S)-3-(6,6-Dlmethyl-4,4-dioxo-5,6-dihydro-4H-4lambda6-[1,4,3]oxathiazin-2-ylamino)-3 phenylpropan-1-ol] has an IC50 of 307 nM. Compound `O=S1(=O)CC2(CCCC2)OC(NC2CCCCC2)=N1` [Example 3, Cyclohexyl-(9,9-dioxo-6-oxa-9lambda6-thia-8-azaspiro[4.5]dec-7-en-7-yl)amine] has an IC50 of 308 nM. Compound `O=S1(=O)CC2(CCCCC2)OC(N[C@@H](CCO)c2ccccc2)=N1` [Example 8, (S)-3-(4,4-Dioxo-1-oxa-4lambda6-thia-3-aza-spiro[5.5]undec-2-en-2-ylamino)-3-phenyl-propan-1-ol] has an IC50 of 66 nM.
